Data taken from publication PMC10725471, “Chemical modulation of cytosolic BAX homodimer potentiates BAX activation and apoptosis” (Nature Communications, 2023).
Structures can show the parent of a compound that is named as a salt. Each block holds one compound with its values, some of them ahead of it.

Assays:
[1] = system: HCT116 BAX WT, HCT116 BAX P168G and HCT116 BAX E75K cells; assay: Caspase 3/7 activation assay; assay type: cell-based, human; conditions: all HCT116 BAX cell lines, titration, 6 hrs
[2] = system: HCT116 BAX P168G cells (HCT116 BAX KO reconstituted with BAX P168G, cytosolic dimer); assay: Cell viability (CellTiter-Glo) assay; conditions: up to highest concentration of 2 μM, 24 h
[3] = system: HCT116 BAX E75K cells (HCT116 BAX KO reconstituted with BAX E75K, cytosolic monomer); assay: Cell viability (CellTiter-Glo) assay; assay type: cell-based; conditions: Homo sapiens, HCT-116, after 24 h
HCT116 BAX P168G cells = assay: Caspase 3/7 activation assay; assay type: cell-based, human
[4] = system: CALU-6 CRISPR/Cas9 BAX KO cells; assay: Caspase 3/7 activation assay; assay type: cell-based, human; conditions: CALU-6 BAX KO, 8 hrs
[5] = system: HCT116 BAX WT cells (HCT116 BAX KO reconstituted with BAX WT, cytosolic dimer); assay: Cell viability (CellTiter-Glo) assay; assay type: cell-based; conditions: Homo sapiens, HCT-116, 24 h
BAX in CALU-6 cells = biological target: T1, BAX in CALU-6 cells (Homo sapiens, UniProt Q07812); assay: Active BAX immunoprecipitation with 6A7 antibody (BAX conformational change assay); assay type: cell-based; conditions: 20 µM, 2 hrs
T1 construct: endogenous in cells; host or cells: CALU-6
T1 sequence (Q07812 whole entry): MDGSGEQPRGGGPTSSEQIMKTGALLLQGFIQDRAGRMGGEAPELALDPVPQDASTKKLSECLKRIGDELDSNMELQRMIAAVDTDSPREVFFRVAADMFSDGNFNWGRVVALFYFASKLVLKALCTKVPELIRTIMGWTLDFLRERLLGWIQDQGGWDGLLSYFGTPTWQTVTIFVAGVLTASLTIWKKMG
Method: Cells were harvested and lysed with a 1% CHAPS lysis buffer (150 mM NaCl, 10 mM HEPES, pH 7.4, 1% CHAPS) supplemented with Halt protease inhibitor cocktail (Thermofisher Cat. 1861279). Whole-cell lysates were subjected to immunoprecipitation followed by immunoblotting against total BAX. Briefly, 500–1000 μg total protein in 600 µl was collected and incubated with 12 µl (50% slurry) of pre-equilibrated protein G agarose beads (Santa Cruz Biotechnology) for 30 min at 4 °C on a rotator. The precleared samples were then incubated with 5 µl of 6A7 antibody (Santa Cruz Biotechnology Cat. 23959) overnight at 4 °C. The next day, 20 µl (50% slurry) of pre-equilibrated G agarose beads (Santa Cruz Biotechnology) were added to the samples and incubated for 2 h at 4 °C. The beads were pelleted, washed with the lysis buffer 3 times, and protein eluted by heating the beads at 90 °C for 15 minutes in 1X LDS/DTT loading buffer. The immunoprecipitates were subjected to electrophoresis on 4–12% NuPage gels (Life Technologies). For visualization of proteins using Odyssey Infrared Imaging System (LI-COR Biosciences), membranes were blocked in PBS containing 5% milk powder for 1 hour at room temperature. Primary antibodies were incubated overnight at 4 °C. After washing, membranes were incubated with an IRdye800-conjugated goat anti-rabbit IgG (1:10, 000) or IRDye800- conjugated goat anti-mouse IgG (1:20,000 dilution) secondary antibodies (LI-COR Biosciences). Antibodies were used to detect the following proteins on membrane: BAX (Cell Signaling Cat. 2772) and β-Actin (Sigma Cat. A1978) or β-tubulin (Cell Signaling Cat. 2146).

SUDHL-5 cells = assay: Cell viability (CellTiter-Glo) assay; assay type: cell-based; conditions: Homo sapiens, SU-DHL-5; SUDHL-5, 72 hrs
[6] = biological target: cytosolic BAX (endogenous, human cell lines) (human (endogenous in human cell lines)) (UniProt Q07812); assay: SEC; cytosolic fraction (2.5 mg, lysis without detergent) on Superdex 200 10/300 GL in IBc buffer (10 mM Tris HCl, 1 mM EGTA, 200 mM sucrose, pH 7.5), 4 °C; fractions blotted for BAX; cell lines with BAX centered at 14–14.5 ml (CALU-6, HCT-116, Namalwa, BEAS-2B, IMR90 and other lines of the panel)
[7] = biological target: human BAX WT in HCT116 BAX KO cells (human) (UniProt Q07812); assay: SEC; cytosolic fraction of HCT116 BAX KO cells reconstituted with BAX WT, P168G or E75K, untreated; Superdex 200 10/300 GL in IBc buffer, 4 °C; fractions blotted for BAX
[8] = biological target: FITC-BIM SAHB, hydrocarbon-stapled peptide corresponding to the BH3 domain of BIM; assay: fluorescence polarisation; direct binding: FITC-BIM SAHB (25 nM) with serial dilutions of full-length BAX; 10-minute time-point

recombinant human full-length (aa1–192) wild-type BAX, sequence (Q07812 whole entry, the tested form may be a part): as the sequence (Q07812 whole entry) above

Compound: CC1(C)CCC(CN2CCN(c3ccc(C(=O)NS(=O)(=O)c4ccc(NCC5CCOCC5)c([N+](=O)[O-])c4)c(Oc4cnc5[nH]ccc5c4)c3)CC2)=C(c2ccc(Cl)cc2)C1 [ABT-199, Venetoclax]
caspase-3/7 activity (result in words) [1]: failed to induce caspase-3/7 activity

IC50 [3]: 45 nM
IC50 [5]: 191 nM
Compound: CC1(C)CCC(c2ccc(Cl)cc2)=C(CN2CCN(c3ccc(C(=O)NS(=O)(=O)c4ccc(N[C@H](CCN5CCOCC5)CSc5ccccc5)c(S(=O)(=O)C(F)(F)F)c4)cc3)CC2)C1 [ABT-263, Navitoclax]
cell viability (result in words) [2]: did not show decreased viability
caspase-3/7 activity (result in words) (HCT116 BAX P168G cells; titration, 6 hrs): did not show caspase-3/7 activity
caspase-3/7 activation (result in words) [4]: no caspase-3/7 activation was observed

6A7 epitope exposure and activation of BAX (result in words) (BAX in CALU-6 cells): none of the analogs
Compound: O=C(O)c1ccc(-n2c(/C=C/C3CCCC3)nc3ccc(I)cc3c2=O)cc1 [BDM19.2]

6A7 epitope exposure and activation of BAX (result in words) (BAX in CALU-6 cells): none of the analogs
Compound: O=C(O)c1ccc(-n2c(/C=C/C3CC3)nc3ccc(I)cc3c2=O)cc1 [BDM19.3]

6A7 epitope exposure and activation of BAX (result in words) (BAX in CALU-6 cells): none of the analogs
Compound: Cc1cccc(/C=C/c2nc3c(c(=O)n2-c2ccc(C(=O)O)cc2)CCCC3)c1 [BDM19.4]

IC50 (SUDHL-5 cells): 1360 nM
Compound: Cc1cccc(/C=C/c2nc3ccc(I)cc3c(=O)n2-c2ccc(C(=O)O)cc2)c1 [BDM19]
caspase-3/7 activation (result in words) [4]: no caspase-3/7 activation was observed

Compound: COc1cccc2c1C(=O)c1c(O)c3c(c(O)c1C2=O)C[C@@](O)(C(=O)CO)C[C@@H]3O[C@H]1C[C@H](N)[C@H](O)[C@H](C)O1 [doxorubicin, Doxorubicin hydrochloride]
caspase-3/7 activation (result in words) (HCT116 BAX P168G cells; various concentrations, 24 hrs): not responsive

stoichiometry N [6]: 2
Compound: cytosolic BAX (endogenous, human cell lines) (from UniProt Q07812 1-192) (natural protein)

stoichiometry N [7]: 2
Compound: human BAX WT in HCT116 BAX KO cells (from UniProt Q07812 1-192) (natural protein)

EC75 [8]: 125 nM
Compound: recombinant human full-length (aa1–192) wild-type BAX (from UniProt Q07812 1-192) (natural protein)
